Source: patent publication US10933044B2, “Marine organism-derived extract, compound, and medical composition having niche formation suppressing activity of leukemic stem cells” (WASEDA UNIVERSITY, priority 2016, dated 2021)
Entries after “also recorded” stand apart in the source; their conditions may differ.

Columns and labels:
[1] = tested on: MB-1 cells co-cultured with OP9 cells; assay: Apoptosis detection with NucView 488 Caspase-3 Assay Kit in co-culture of MB-1 cells and OP9 cells; assay type: cell-based, human; conditions: for Apoptosis induction of MB-1 cells (%): NucView 488 positive cells
Experimental: (§1) To a 12-well plate, OP9 cells treated with MMC were seeded at a density of 1.6×10^5 cells per well. After culture was performed for one day, MB-1 cells were seeded at a density of 8.0×10^4 cells per well. After culture was performed for two days, Stelliferin A was added in a concentration of 0.4 μg/mL. After culture was performed for one day, imatinib was added in a concentration of 0.2 μM or 1.0 μM. After culture was performed for one day, apoptosis was detected in the manner described below.
Apoptosis was detected by use of NucView 488 Caspase-3 Assay Kit for Live Cells (Biotium, USA) or a fluorescent reagent JC-1 (Cayman Chemical, USA) which detects mitochondrial membrane potential difference.
In evaluation by NucView 488, 0.05% trypsin-EDTA was added to individual wells. After incubation for 4 minutes, the culture liquid was added. Aliquots were separately taken and then centrifuged (1,200 rpm, 4 minutes) to collect cells. Each of the suspensions of the cells collected was controlled so as to obtain a density of 1.0×10^6 cells per mL. Aliquots (200 μL) were separately taken from the suspensions. To the cells thus taken, 5 μL of NucView 488 substrate stock solution of NucView 488 Caspase-3 Assay Kit for Live Cells was added and incubated in the darkness at normal temperature for 20 minutes. Culture liquid (300 μL) was added and subjected to analysis by a cell sorter (Type SH-800, SONY Corporation, Tokyo). The ratio of green fluorescent positive cells per each well was calculated.

MB-1 cells [2] = assay: Apoptosis inducing action by imatinib alone in culture system of MB-1 cells alone (NucView 488); assay type: cell-based, human; conditions: imatinib 0.2 μM or 1.0 μM, one day; compared to MB-1 cells co-cultured in the absence of Stelliferin A
Experimental: Apoptosis inducing action by imatinib alone in a culture system of MB-1 cells alone was evaluated.
From a co-culture system with OP9 cells, MB-1 cells were purified by a cell sorter and seeded to 12-well plates at a density of 2.0×10^5 cells per well, and then, imatinib was added in a concentration of 0.2 μM or 1.0 μM. After culture was performed for one day, apoptosis was detected in the manner described below.
Apoptosis was detected by use of NucView 488 Caspase-3 Assay Kit for Live Cells (Biotium, USA) in the same manner as in the apoptosis detection performed in the co-culture system of MB-1 cells and OP9 cells.

[3] = tested on: MB-1 cells co-cultured with OP9 cells; assay: Apoptosis detection with JC-1 mitochondrial membrane potential reagent in co-culture of MB-1 cells and OP9 cells; assay type: cell-based, human
Experimental: The effect of the Stelliferin compound on CA formed by co-culture of OP9 cells (serving as support cells for the CA formation in the mouse mesenchymal cells) and MB-1 cells was examined by apoptosis detection reagent JC-1.
as §1, with “24-well” for “12-well”, “8.0×10^4” for “1.6×10^5”, “4.0×10^4” for “8.0×10^4”, “of” for “of 0.2 μM or”
Apoptosis was detected by JC-1 Mitochondrial Membrane Potential Assay Kit. To each well, 50 μL of JC-1 Reagent of JC-1 Mitochondrial Membrane Potential Assay Kit was added and incubation was carried out for 20 minutes. Thereafter, 0.05% trypsin-EDTA was added to each well and incubation was carried out for 4 minutes. After a culture liquid was added, aliquots were separately taken and then centrifuged (1,200 rpm, 4 minutes) to collect cells. The collected cells were separately suspended in 300 μL of a culture liquid and analyzed by a cell sorter (Type SH-800, SONY Corporation, Tokyo). The ratios of red fluorescent negative cells in individual wells were calculated.

[4] = tested on: MB-1 cells co-cultured with OP9 cells; assay: Screening for cobblestone area (CA) formation inhibitory activity in co-culture of OP9 cells and MB-1 cells; assay type: cell-based, human; conditions: OP9/MB-1 co-culture, 48 hours incubation with sample; tested at 10, 2, 0.4 and 0.08 μg/mL; microscopic observation
Experimental: In individual wells of a 96-well plate, OP9 cells (9.0×10^3) treated with 3 μg/mL mitomycin C (Sigma-Aldrich Co. LLC., USA) for 3 hours (37° C., 5% CO2) were seeded and incubated at 37° C. under 5% CO2. The culture liquid used herein was α MEM (Gibco) containing 20% inactivated FBS (MP Biomedicals, LLC., USA) and 1% penicillin-streptomycin (P/S, Gibco, Thermo Fisher Scientific Inc., USA). The following day, to the individual wells having OP9 cells seeded therein, MB-1 cells (2.5×10^3) were seeded. In the co-culture of the OP9 cells and MB-1 cells, the culture liquid used herein was α MEM containing 10% inactivated FBS (Biowest SAS, France), 1% P/S, 1% non-essential amino acids (NEAA, Invitrogen, Thermo Fisher Scientific Inc.) and 10 μM β-mercaptoethanol (Gibco). Forty-eight hours later, a Porifera sample (2 μL) dissolved in DMSO was added and diluted five times to prepare four solutions different in concentration (10 μg/mL, 2 μg/mL, 0.4 μg/mL and 0.08 μg/mL). After incubation was performed for 48 hours at 37° C. under 5% CO2, fixation was performed with 4% paraformaldehyde (Wako Pure Chemical Industries, Ltd.), nuclear-staining was performed with Hoechst 33342 (Dojindo Laboratories, Kumamoto) and observation was made with a microscope (Type IX71, Olympus Corporation Ltd., Tokyo). […]

[5] = tested on: TF-1 cells co-cultured with OP9 cells; assay: Niche (CA) formation suppression in co-culture of TF-1 cells and OP9 cells; assay type: cell-based, human; conditions: TF-1/OP9 co-culture; Stelliferin A at 0.4 μg/mL, two days
Experimental: In order to verify that the action of Stelliferin A to suppress niche formation by MB-1 cells is not specific to MB-1 cells, the actions of a fat-soluble fraction of S12111 and Stelliferin A against niche formation by TF-1 cells were evaluated in a co-culture system of TF-1 cells (which have leukemic stem-cell-like characteristics similarly to MB-1 cells) and OP9 cells.
The experiment was carried out basically in the same manner as employed in the evaluation with MB-1 cells mentioned above except that TF-1 cells (strain derived from human bone marrow erythroleukemia cells) were used in place of MB-1 cells. In evaluation of Stelliferin A, more specifically, evaluation of niche formation suppressive action of Stelliferin A in the co-culture system of TF-1 cells and OP9 cells, OP9 cells (8.0×10^4) treated with MMC were seeded in individual wells of a 24-well plate. After culture was performed for one day, TF-1 cells (4.0×10^4) were seeded. The culture liquid used herein was IMDM (Gibco) containing 10% inactivated FBS (Biowest SAS, France) and 1% P/S. After culture was performed for one day, medium was exchanged. After culture was performed for further one day, Stelliferin A was added in a concentration of 0.4 μg/mL. After culture was performed for two days, the presence or absence of CA formation was observed by a microscope.

[6] = tested on: MB-1 cells co-cultured with OP9 cells; assay: CA reformation after Stelliferin A treatment of OP9/MB-1 co-culture and exchange of culture medium; assay type: cell-based, human; conditions: Stelliferin A 0.4 μg/mL Day 4 to Day 6, fresh medium without it, examined Day 8
Experimental: (§2) On Day 1, OP9 cells were seeded in a culture medium in the same manner as above and incubated. On Day 2, MB-1 cells were seeded and co-cultured with the OP9 cells. On day 4, Stelliferin A was added so as to be 0.4 μg/mL and incubated.

[7] = tested on: MB-1 cells co-cultured with OP9 cells; assay: Stereoscopic positional relationship between mCherry OP9 cells and GFP MB-1 cells by confocal microscope; assay type: cell-based, human; conditions: Stelliferin A 0.4 μg/mL, two days
Experimental: The effect of a Stelliferin compound on the stereoscopic positional relationship between OP9 cells (which serve as support cells in CA formation in the mouse mesenchymal cells) and MB-1 cells was examined by using OP9 cells and MB-1 cells to which fluorescent proteins were separately introduced.
To a 35-mm dish having a glass bottom, OP9 cells, which were treated with MMC and to which fluorescent protein mCherry was introduced, were seeded at a density of 4.0×10^5 cells. After culture was performed for one day, fluorescent protein GFP introduced MB-1 cells were seeded at a density of 2.0×10^5 cells. After culture was performed for two days, Stelliferin A was added in a concentration of 0.4 μg/mL. After culture was performed for two days, the stereoscopic positional relationship between the cells was photographed with a confocal microscope (Type IX81, Olympus Corporation), and examined.

MB-1 cells [8] = assay: CA reformation when free MB-1 cells from treated co-culture are co-cultured with fresh OP9 cells; assay type: cell-based, human; conditions: Stelliferin A 0.4 μg/mL Day 4 to Day 6, then co-culture in the absence of Stelliferin A, examined Day 8
Experimental: as §2

OP9 cells = assay: CA formation when OP9 cells exposed to Stelliferin A are co-cultured with unexposed MB-1 cells; assay type: cell-based, mouse; conditions: OP9 cells exposed to 0.4 μg/mL Day 2 to Day 4, then unexposed MB-1 cells; compared to unexposed control
Experimental: On Day 1, OP9 cells were seeded in a culture medium in the same manner as above and incubated. On Day 2, Stelliferin A was added so as to be 0.4 μg/ml, and incubated. On Day 4, fresh MB-1 cells not exposed to Stelliferin A were seeded and co-cultured. On Day 6, whether CA was formed or not was examined. Also, for comparison, CA formation was examined in a control system where OP9 cells and MB-1 cells were co-cultured in the absence of Stelliferin A in accordance with the above schedule.

Compound	Apoptosis induction of MB-1 cells (%) ([1]; imatinib 0.2 μM, Stelliferin A absent)	Apoptosis induction of MB-1 cells (%) ([1]; imatinib 1.0 μM, Stelliferin A absent)	Sensitivity of MB-1 cells cultured alone to imatinib (apoptosis) (MB-1 cells [2])	Apoptosis induction of MB-1 cells (%) ([1]; Stelliferin A present at 0.4 μg/mL plus imatinib 0.2 μM)	Apoptosis induction of MB-1 cells (%) ([1]; Stelliferin A present at 0.4 μg/mL plus imatinib 1.0 μM)	Apoptosis induction of MB-1 cells (%) ([1]; Stelliferin A present at 0.4 μg/mL, imatinib absent)	Ratio of MB-1 cells which induced apoptosis / NucView peak representing caspase 3 activity ([1]; presence of Stelliferin A with imatinib 0.2 μM and 1.0 μM compared to absence of Stelliferin A)	Apoptosis induction (JC-1, mitochondrial membrane potential difference disappeared) ([3]; co-presence of Stelliferin A 0.4 μg/mL and imatinib 1.0 μM)	Apoptosis induction (JC-1) when dose of imatinib was changed ([3]; in the presence of Stelliferin A, imatinib dose varied)	CA formation inhibitory activity [4] [µg/mL]	Niche formation by TF-1 cells [5]	CA reformation after removal of Stelliferin A [6]	Position of MB-1 cells relative to OP9 cell layer [7]	CA reformation of treated free MB-1 cells with fresh OP9 cells (MB-1 cells [8])	Number of CAs formed with OP9 cells exposed to Stelliferin A (OP9 cells)
Cc1ccc(NC(=O)c2ccc(CN3CCN(C)CC3)cc2)cc1Nc1nccc(-c2cccnc2)n1 [Imatinib, imatinib, reference compound]	8.07	12.14	high sensitivity												
Stelliferin A				22.39	44.63	16.03	increased depending on each of the concentrations of Stelliferin A and imatinib; also recorded: statistically significantly (Student t test, p<0.05) increased	apoptosis was induced	apoptosis was also induced in the dose-dependent manner of imatinib	0.08	suppressed niche formation by TF-1 cells	CA was not reformed	MB-1 cells were exposed to the upper side of the OP9 cell layer	CA was reformed	the number of CAs formed was low
Stelliferin B										0.08					
